Data taken from article PMC6696338, “Pharmacokinetic and Metabolism Studies of Monomethyl Auristatin F via Liquid Chromatography-Quadrupole-Time-of-Flight Mass Spectrometry” (Molecules, 2019).
Non-standard residues stand in square brackets, D forms with d. Residues, ends and D or L forms follow the SMILES beside them. Dolaproine = CO[C@@H]([C@@H]1CCCN1)[C@@H](C)C(=O)O; Dil = CC[C@H](C)[C@H](NC)[C@@H](CC(=O)O)OC; NMeV = CN[C@H](C(=O)O)C(C)C

Columns and labels:
[1] = Pharmacokinetic study of MMAF in rat (IV and PO), plasma by LC-TOF-MS/MS; type: in vivo; details: male SD rat
Procedure: Twenty microliters of rat plasma samples were placed in a cluster tube. Four microliters (make-up solution) of DMSO were added to the cluster tube, and 100 μL of ACN was also added. The mixture was capped and vortexed, and then centrifuged for 5 min at 12,000 rpm (4 °C). Following the centrifugation, 70 μL supernatant was transferred to an LC vial and diluted by adding 140 μL of DW.
(§1) LC-TOF-MS/MS was consisted of a Shimadzu CBM-20A/LC-20AD chromatographic system (Shimadzu Scientific Instruments, Columbia, MD, USA), with an eksigent CTC HTS PAL auto-sampler (Sciex, Redwood City, CA, USA) and a quadrupole time-of-flight TripleTOF 5600 mass spectrometer (Sciex, Redwood City, CA, USA). Kinetex XB-C18 column (2.1 × 50 mm, Phenomenex) for quantification and Kinetex XB-C18 column (2.1 × 100 mm, Phenomenex) for metabolite profiling studies were used as analytical columns. The LC mobile phase consisted of DW containing 0.1% formic acid (phase A) and ACN containing 0.1% formic acid (phase B). The flow rate was 0.4 mL/min for quantification and 0.3 mL/min for Met ID while maintaining the column temperature at 55 °C. Injection volume was 10 μL.
(1) Quantification: For TOF-MS/MS scan, the scan range was m/z 100~900. The protonated [M + H]^+ ion of MMAF (m/z 732.5) was used and its product ions at m/z 700.5 and m/z 520.3 were selected as the quantitative ion and the qualitative ion, respectively. The source temperature was set at 500 °C. The curtain gas flow was set at 30 L/min. The ion spray voltage (IVSF) was set at 5500 V. The declustering potential (DP) was 100 V, and the collision energy (CE) was 36 V.
Data acquisition and LC-MS/MS operation were conducted using Analyst® TF Version 1.6 (Sciex, Redwood City, CA, USA). MultiQuant® Version 2.1.1 (Sciex, Redwood City, CA, USA) was used for peak integration for MMAF quantification. The descriptive statistics for the qualification studies were calculated with Excel 2015 (Microsoft, Seoul, Korea). Pharmacokinetic parameters were calculated in a non-compartmental analysis using WinNonlin® version 8.0.0 (Certara, Princeton, NJ, USA). PeakView® Version 2.2 (Sciex, Redwood City, CA, USA) and MetabolitePilot^TM Version 2.0.2 (Sciex, Redwood City, CA, USA) were used for the structural elucidation of metabolites. MedChem Designer (Simulations Plus, Inc, Lancaster, CA, USA) was used for in silico metabolite prediction.
Male Sprague-Dawley (SD) rats were used for rat PK studies of MMAF. For rat PK studies of MMAF, rats were distributed into two different groups (5 mg/kg IV (intravenous) group and 10 mg/kg PO (oral) group). After IV or PO dose, blood samples were collected to heparinized tubes and centrifuged immediately at 10,000 rpm for 5 min. The sampling times were 0, 2, 5, 15, 30, 60, 90, 120, 240, 360, and 1440 min for IV PK and 0, 5, 15, 30, 60, 90, 120, 240, 360, and 1440 min for PO PK. The supernatant was transferred to a clean tube and stored at −80 °C until analysis.

[2] = In vitro metabolite profiling in human liver microsome; type: in vitro ADME; details: 90 min, 37 °C
Excerpt: as §1
(§2) (2) Metabolite profiling: The mass spectrometric conditions for the metabolite profiling of MMAF were as follows. The information-dependent analysis (IDA) with high-resolution TOF full scan was operated with electrospray ionization (ESI) in positive ion mode using real-time multiple mass defect filtering (MDF) and dynamic background subtraction. The IDA method consisted of TOF scan (m/z 50 to 1200) for the detection of MMAF and its metabolites. The method was followed by 6 TOF-MS/MS dependent scans (m/z 50 to 1200) for structural elucidation. […]

[3] = qualitative comparison; cited from earlier work
Excerpt: Auristatin is a microtubule-destroying drug. It was derived from marine shell-less mollusk Dolabella auricularia called dolastatins (Figure 1). After the dolastatin was found, it has been studied in the treatment of cancer, malaria, and fungus. After the successful total synthesis of dolastatin 10, various derivatives have been synthesized, such as monomethyl auristatin E (MMAE) and monomethyl auristatin F (MMAF). MMAE and MMAF were developed by Seattle Genetics and used as payloads for ADC. MMAF and MMAE have their advantages and disadvantages. MMAE is m ...

[4] = In vitro metabolite profiling in rat liver microsome; type: in vitro ADME; details: 90 min, 37 °C
Excerpt: as §1, §2

[5] = Preliminary stability tests of MMAF in rat plasma; type: in vitro ADME; details: for Short-term stability, mean concentration / Short-term stability, accuracy %: RT, 4 h; for Short-term stability, accuracy % / Long-term stability, accuracy % / Freeze-thaw stability, accuracy %: n = 3; for Freeze-thaw stability, accuracy %: three cycles
Procedure: Preliminary stability tests were performed in rat plasma under 4 different conditions, including short-term, freeze-thaw, long-term, and post-preparative stability. The short-term stability was assessed at room temperature (RT) for 4 hrs. The long-term stability was assessed by comparing the freshly prepared control samples to the samples kept frozen for 4 weeks at −80 °C. For the freeze-thaw stability, the stability-test samples were subjected to three freeze and thaw cycles at −80 °C. The post-preparative stability was assessed for the QC samples kept in an auto-sampler (10 °C) for 12 hrs.
The acceptance criteria for all of the qualification were within ±15% of the precision and accuracy.

[6] = processed rat plasma QC in auto-sampler, 10 °C, high QC
[7] = processed rat plasma QC in auto-sampler, 10 °C, low QC

CC[C@H](C)[C@@H]([C@@H](CC(=O)N1CCC[C@H]1[C@H](OC)[C@@H](C)C(=O)N[C@@H](Cc1ccccc1)C(=O)O)OC)N(C)C(=O)[C@@H](NC(=O)[C@@H](NC)C(C)C)C(C)C [MMAF, monomethyl auristatin F] (H-[NMeV]V[Dil][Dolaproine]F-OH)
clearance ([1]; Sprague-Dawley, plasma, IV 5 mg/kg, non-compartmental analysis, read-out: Clearance (CL)): 77.3 mL/min/kg
Vd ([1]; Sprague-Dawley, plasma, IV 5 mg/kg, non-compartmental analysis, read-out: Vss): 1.06 L/kg
AUC(0-t) ([1]; Sprague-Dawley, IV 5 mg/kg, plasma, non-compartmental analysis): 1090 ng·h/mL
Cmax ([1]; Sprague-Dawley, IV 5 mg/kg, plasma, non-compartmental analysis, LC-TOF-MS/MS): 8280 ng/mL
Bioavailability ([1]; PO 10 mg/kg vs IV 5 mg/kg): 0%
Systemic exposure after oral dosing ([1]; PO 10 mg/kg, plasma): no systemic exposure was observed
Number of metabolites tentatively identified [2]: seven
Aggregation tendency relative to MMAE [3]: lower aggregation tendency
Hydrophilicity relative to MMAE [3]: more hydrophilic
Systemic toxicity relative to MMAE [3]: lower systemic toxicity
Number of metabolites tentatively identified [4]: four
Post-preparative stability, area ratio after 12 h as % of first injection [5, 6]: 99.98%
Post-preparative stability, area ratio of 10th injection (after 12hr) [5, 6]: 7.43
Post-preparative stability, area ratio after 12 h as % of first injection [5, 7]: 97.93%
Post-preparative stability, area ratio of 10th injection (after 12hr) [5, 7]: 0.61
Post-preparative stability, area ratio of 1st injection [5, 6]: 7.43
Short-term stability, mean concentration ([5]; rat plasma, high QC 1820 ng/mL, LC-TOF-MS/MS, mean of n = 3): 1884.23 ng/mL
Short-term stability, accuracy % ([5]; rat plasma, high QC 1820 ng/mL): 103.53%
Short-term stability, mean concentration ([5]; rat plasma, low QC 165.46 ng/mL, LC-TOF-MS/MS, mean of n = 3): 149.90 ng/mL
Short-term stability, accuracy % ([5]; rat plasma, low QC 165.46 ng/mL): 90.60%
Long-term stability, mean concentration ([5]; rat plasma, −80 °C, 4 weeks, high QC 1820 ng/mL, LC-TOF-MS/MS, mean of n = 3): 1657.96 ng/mL
Long-term stability, accuracy % ([5]; rat plasma, −80 °C, 4 weeks, high QC 1820 ng/mL): 91.10%
Long-term stability, accuracy % ([5]; rat plasma, −80 °C, 4 weeks, low QC 165.46 ng/mL): 95.46%
Freeze-thaw stability, accuracy % ([5]; rat plasma, −80 °C, high QC 1820 ng/mL): 91.10%
Freeze-thaw stability, accuracy % ([5]; rat plasma, −80 °C, low QC 165.46 ng/mL): 95.46%
Stability in rat plasma (in words) ([5]; short-term, long-term, freeze/thaw and post-preparative conditions, acceptance ±15%): stable

monomethyl auristatin E [MMAE]
IC50 relative to MMAF [3]: lower IC50 than MMAF
Membrane permeability relative to MMAF [3]: more membrane-permeable
